pIC50: −log10 of the molar value.
Key:
[1] = test system: 12 human cancer cell lines (U-373MG, U-87MG, SW1088, A549, A-427, HCT-15, LoVo, T-47D, MCF7, J82, T24, PC-3); test: Cytotoxic activity on tumour cell lines in culture (MTT test); type: cell-based; details: mean IC50 calculated from the individual cytotoxic activities on each of the 12 tumour lines, 72 hours incubation
Protocol: 1—Cytotoxic Activity on Tumour Cell Lines in Culture (MTT Test)
The influence of the compounds of formula (I) and of (Ia) on tumour cells was evaluated using the MTT calorimetric test (T. Mosman, J. Immunol. Methods, 1983; 65: 55-63, J. Carmichael et al., Cancer Res. 1987; 47: 936-942).
The principle of the MTT test is based on the mitochondrial reduction by metabolically active alive cells of the yellow-coloured product MTT (3-(4,5-dimethylthiazol-2-yl)-2,5-diphenyltetrazolium bromide) to a blue-coloured product, formazan. The amount of formazan thus obtained is directly proportional to the amount of live cells present in the culture well or wells. This amount of formazan is measured by spectrophotometry.
The cell lines are maintained in monolayer culture at 37° C. in stoppered culture dishes containing 25 MM HEPES MEM (Minimum Essential Medium) base medium. This medium is well suited to the growth of a range of varied diploid or primary mammalian cells. This medium is subsequently supplemented: […]
with an amount of 5% of FCS (Foetal Calf Serum) decomplemented at 56° C. for 1 hour, with 0.6 mg/ml of L-glutamine, with 200 IU/ml of penicillin, with 200 μg/ml of streptomycin, with 0.1 mg/ml of gentamicin.
The 12 human cancer cell lines which were used were obtained from the American Type Culture Collection (ATCC, Rockville, Md., USA). These 12 cell lines are:
U-373MG (ATCC code: HTB-17) and U-87MG (ATCC code: HTB-14), which are two glioblastomas, SW1088 (ATCC code: HTB-12) which is an astrocytoma, A549 (ATCC code: CCL-185) and A-427 (ATCC code: HTB-53), which are two non-small-cell lung cancers, HCT-15 (ATCC code: CCL-225) and LoVo (ATCC code: CCL-229), which are two colorectal cancers, T-47D (ATCC code: HTB-133) and MCF7 (ATCC code: HTB-22), which are two breast cancers, J82 (ATCC code: HTB-1) and T24 (ATCC code: […]), which are two bladder cancers, PC-3 (ATCC code: CRL-1435), which is a prostate cancer.
Experimentally: 100 μl of a cell suspension comprising 20 000 to 50 000 (depending on the cell type used) cells/ml of culture medium are inoculated in flat-bottomed 96-well multi-well plates and are incubated at 37° C. under an atmosphere comprising 5% of CO2 and 70% humidity. After incubating for 24 hours, the culture medium is replaced with 100 μl of fresh medium comprising either the various test compounds at concentrations varying from 10^−5 to 10^−10 M of the solvent used to dissolve the -test products (control condition). After incubating for 72 hours under the above conditions, the culture medium is replaced with 100 μl of a yellowish solution of MTT dissolved, in a proportion of 1 mg/ml, in RPMI 1640. The microplates are reincubated for 3 hours at 37° C. and then centrifuged for 10 minutes at 400 g. The yellowish MTT solution is removed and the blue formazan crystals formed at the cellular level are dissolved in 100 μl of DMSO. The microplates are subsequently agitated for 5 minutes. The intensity of the resulting blue coloration, and thus of the conversion of the yellow MTT product into blue formazan by the cells which are still alive at the end of the experiment, is quantified by spectrophotometry using a device of DYNATECH IMOASSAY SYSTEM type at wavelengths of 570 nm and 630 nm corresponding respectively to the maximum absorption wavelengths of formazan and to the background noise. Software built into the spectrophotometer calculates the mean optical density values and the standard deviation (Std. Dev.) and standard error of the mean (SEM) values.
The inhibitory activity on the cell growth of the compounds of formula (I) and (Ia) on the various tumour cell lines was measured in comparison with that of the natural product.

HS-MXT tumours = test: In vivo antitumour activity, hormone-sensitive mouse mammary adenocarcinoma MXT (HS-MXT), tumour growth; details: 5 mg/kg intraperitoneally; for Tumour area (expressed as %): decrease (−) or increase (+) in HS-MXT tumour area vs control on the 31st day after grafting, 9 administrations
Protocol: The tests were carried out on models of:
hormone-sensitive mouse mammary adenocarcinoma MXT (HS-MXT),
The model of mouse mammary adenocarcinoma MXT of Watson C. et al. (Cancer Res., 1977; […]: 3344-48), grafted onto B6D2F1/Jico mice aged from 4 to 6 weeks, is derived from the mammary gland milk ducts. Initially hormone-sensitive (HS-MXT model), the differentiated tumour develops in the direction of an undifferentiated hormone-insensitive tumour (HI-MXT model). […] This is the case, for example, with cyclophosphamide, etoposide or adriamycin.
When the MTD value of a product was determined, its in vivo antitumour activity was characterized at the MTD/2, MTD/4 and MTD/8 doses on the models of mammary adenocarcinoma of mouse origin HS-MXT and of mouse mammary carcinoma HI-MXT and on the model of subcutaneous lymphoma L 1210.
In all the examples presented below, whatever the model, the control condition is represented by a batch of 9 or 15 mice to which is administered, for 3 consecutive weeks and at the rate of 3 administrations (Monday, Wednesday and Friday) per week, a volume of 0.2 ml of physiological saline comprising the solvent used to dissolve the various compounds of formula (I) and (Ia) used.
i)—The tumour growth was evaluated by measuring twice weekly (Monday and Friday) the area of the grafted HS-MXT, HI-MXT or L 1210 tumours. This area is calculated by multiplying the value of the two greatest perpendicular axes of the tumour. The value of these axes is measured using a sliding caliper.
The influence of the two products CRL 8293 and CRL 8294 on the growth of HS-MXT tumours will be presented below by way of example. Each batch of mice grafted with the HS-MXT tumours relating to a given experimental condition comprises 9 animals.
The product CRL 8293 is administered intraperitoneally. The first injection of the product is carried out on the seventh day postgrafting (D7) at the rate of 3 injections per week (Monday, Wednesday and Friday) for 3 consecutive weeks and at a dose of 5 mg/kg.
The product CRL 8294 is administered alone by the intraperitoneal route. The first injection of the product is carried out on the seventh day postgrafting (D7) at the rate of 3 injections per week (Monday, Wednesday and Friday) for 3 consecutive weeks and at a dose of 5 mg/kg.
The decreases (−) or the increases (+) in the area of the HS-MXT tumours induced with treatments 10 and 20 with respect to the control condition on the 31st day after the tumour grafting, i.e. after the 9 administrations provided in the experimental protocol of the 2 products CRL 8293 and CRL 8294, are shown, as percentage, in the following Table IV. 100% of the control animals are still alive on the 31st day postgrafting.

Structure (SMILES) | pIC50 ([1]; Homo sapiens) | growth of the HS-MXT tumours (in words) (HS-MXT tumours) | Tumour area (expressed as %) (HS-MXT tumours) [%] | pIC50 [1]
O=C1c2cccnc2-c2nccc3ccnc1c23 [CRL 8293, 7H-Pyrido[4,3,2-de][1,10]phenanthroline-7-one] | 5.90 | very highly significant decrease | −45 | 
O=C1c2ncccc2-c2nccc3ccnc1c23 [CRL 8294, 7H-Pyrido[4,3,2-de][1,7phenanthroline-7-one] |  | very highly significant decrease | −64 | 5.84
